Columns and labels:
CCR2 = molecular target: T1, CCR2 (Homo sapiens, UniProt P41597); assay: MCP-1-induced CCR2 internalization / CCR2 receptor occupancy on monocytes (flow cytometry); type: cell-based
T1 construct: endogenous in cells; host or cells: monocytes within PBMCs from HIV+ and HIV- subjects
T1 sequence (P41597 1-360 isoform P41597-2): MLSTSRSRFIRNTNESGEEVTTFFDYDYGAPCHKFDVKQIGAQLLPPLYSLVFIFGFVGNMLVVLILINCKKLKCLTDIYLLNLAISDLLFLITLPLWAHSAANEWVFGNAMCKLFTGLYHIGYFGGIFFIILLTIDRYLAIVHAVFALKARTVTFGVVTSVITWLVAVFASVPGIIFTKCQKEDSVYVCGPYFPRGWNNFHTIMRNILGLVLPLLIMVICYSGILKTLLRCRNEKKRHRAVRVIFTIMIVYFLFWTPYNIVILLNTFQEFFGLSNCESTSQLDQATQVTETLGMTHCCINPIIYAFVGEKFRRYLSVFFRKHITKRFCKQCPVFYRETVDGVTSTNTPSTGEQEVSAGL
Protocol: The capacity of each drug to inhibit CCR5 or CCR2 internalization was evaluated. Cell-surface expression of CCR5 and CCR2 was assessed by flow cytometry, and fluorescence values were converted into molecules of equivalent soluble fluorescence (MESF).

CCR3 = CCR3 (Homo sapiens, UniProt P51677); assay: Inhibition of ligand binding to CCR3
Sequence of CCR3 (P51677 whole entry): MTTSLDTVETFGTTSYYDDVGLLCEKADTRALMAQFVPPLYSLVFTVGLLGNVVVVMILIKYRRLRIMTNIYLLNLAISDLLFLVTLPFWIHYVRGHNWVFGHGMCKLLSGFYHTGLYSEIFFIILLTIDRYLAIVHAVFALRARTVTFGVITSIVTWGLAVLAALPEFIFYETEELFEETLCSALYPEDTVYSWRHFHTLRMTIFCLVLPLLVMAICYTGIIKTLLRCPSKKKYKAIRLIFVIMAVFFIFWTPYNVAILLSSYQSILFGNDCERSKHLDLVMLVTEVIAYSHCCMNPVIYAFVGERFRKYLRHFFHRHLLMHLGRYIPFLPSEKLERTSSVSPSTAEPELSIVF

CCR7 = CCR7 (Homo sapiens, UniProt P32248); assay: Inhibition of ligand binding to CCR7
Sequence of CCR7 (P32248 25-378): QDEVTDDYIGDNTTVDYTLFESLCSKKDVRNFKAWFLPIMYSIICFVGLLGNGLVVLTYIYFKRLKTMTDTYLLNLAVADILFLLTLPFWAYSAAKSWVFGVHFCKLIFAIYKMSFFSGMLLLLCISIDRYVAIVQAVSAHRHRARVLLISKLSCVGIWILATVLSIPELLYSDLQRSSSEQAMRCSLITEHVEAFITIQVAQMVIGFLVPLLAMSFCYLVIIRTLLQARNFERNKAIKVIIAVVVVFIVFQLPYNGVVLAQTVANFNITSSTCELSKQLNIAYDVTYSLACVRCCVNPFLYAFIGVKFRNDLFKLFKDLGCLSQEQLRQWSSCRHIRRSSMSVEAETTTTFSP

HIV-1 = assay: Study 201 Phase 2a 10-day monotherapy: HIV-1 RNA and resistance; type: in vivo, human; conditions: for Median nadir change from baseline in HIV-1 RNA: 10 days
Protocol: Participants were required to be antiretroviral treatment-experienced, CCR5 antagonist-naive, with HIV-1 RNA levels of at least 5000 copies/mL and CD4+ cell counts of at least 250 cells/mm^3 was performed.
In Study 201, drug resistance testing was performed at Baseline, Day 7, and Day 40 (or at the “Early Termination” visit, if applicable).

[1] = Mouse thioglycollate-induced peritonitis model: circulating blood cell counts; conditions: in vivo
Protocol: (§1) The lavage fluid was placed on wet ice pending processing for total and differential cell counts using the Advia analyzer. Following the lavage collection, a blood sample (0.7 mL) was collected from each mouse by intracardiac puncture or from the vena cava (collection time was recorded). 0.5 mL of blood was placed in an EDTA tube, transferred to clinical pathology and analyzed for differential cell counts using the Advia analyzer. 0.2 mL of blood was placed in a K2EDTA tube and processed to plasma. The plasma was collected by centrifugation (3000 rpm for 10 minutes at 4° C.) and placed on dry ice. The samples were analyzed to determine CVC plasma levels. After blood collection, the animals were then exsanguinated by sectioning of the abdominal aorta.
Statistical Analysis: One-way ANOVA with post-hoc Dunnett's statistical analysis was performed on differential cell counts obtained from lavage and blood samples. The analysis was performed in comparison to Group 2.

[2] = Mouse thioglycollate-induced peritonitis model: CVC plasma levels (LC/MS/MS); type: in vivo
Protocol: as §1
Animals received the test article by oral gavage from Days 1 to 5. The twice daily (BID) dosing in Groups 2 to 5 was separated by approximately 12 hours. Blood samples were collected on Day 6 for assessment of plasma levels. Samples were collected by intracardiac puncture or from the vena cava, placed in a K2EDTA tube, and processed to plasma. Samples were stored frozen at −70 to −90° until analyzed. Due to the sacrifice time (48 hours after thioglycollate administration) being dictated by the primary endpoint, samples were collected approximately 14 hours postdose for Groups 2-5 and 26 hours postdose for the remaining groups. No samples were collected for animals 105, 201, 303 and 503.

[3] = system: CC14-induced acute liver injury; assay: CC14-induced acute liver injury in mice; type: in vivo, C57BL/6J mice; conditions: CVC 100 mg/kg oral, 36h after CC14; vehicle 5.49%±0.49
Protocol: Liver injury and immune cell phenotypes were analyzed. For mechanistic studies, monocyte-derived macrophage subsets and resident macrophages (Kupffer cells) were sorted by FACS from injured livers and subjected to array-based Nanostring gene expression analysis.

CCCCOCCOc1ccc(-c2ccc3c(c2)/C=C(/C(=O)Nc2ccc([S@@+]([O-])Cc4cncn4CCC)cc2)CCCN3CC(C)C)cc1 [CVC, (S)-8-[4-(2-Butoxyethoxy)phenyl]-1-isobutyl-N-(4-{[(1-propyl-1H-imidazol-5-yl)methyl]sulfinyl}phenyl)-1,2,3,4-tetrahydro-1-benzazocine-5-carboxamide]
Concentration at which saturation of monocyte CCR2 was reached (CCR2): 6 nM | Concentration required to reach >80% CCR2 receptor occupancy (average) (CCR2): 1.8 nM | receptor occupancy at 0.006 µM (CCR2; at 6 nM): ~98% | CCR2 cell-surface expression (CCR2; in the absence of MCP-1): induced CCR2 internalization and decreased cell-surface expression on monocytes | Inhibition of ligand binding to CCR3 (CCR3): only weakly inhibited | Inhibition of ligand binding to CCR7 (CCR7): did not inhibit | Median nadir change from baseline in HIV-1 RNA (HIV-1; 25 mg once daily): −0.7 log^10 copies/mL | Median nadir change from baseline in HIV-1 RNA (HIV-1; 50 mg once daily): −1.6 log^10 copies/mL | Median nadir change from baseline in HIV-1 RNA (HIV-1; 75 mg once daily): −1.8 log^10 copies/mL | Median nadir change from baseline in HIV-1 RNA (HIV-1; 150 mg once daily): −1.7 log^10 copies/mL | Drug resistance testing (Baseline, Day 7, Day 40) (HIV-1; all subjects with evaluable samples): fully susceptible | Circulating blood cell counts [1]: no clear changes | Plasma levels at the approximate trough (14 hours postdose) ([2]; BID dosing, Day 6): increased in a dose-related manner | concentration at 14.5 h ([2]; mouse, plasma, mice, Day 6, Group 3, 5 mg/kg/day (BID) oral, ~14 hours postdose (actual 14.5 hours), N=2, 3 of 5 samples below LLOQ (10 ng/mL)): 13.5 ng/mL | concentration at 15 h ([2]; mouse, plasma, mice, Day 6, Group 4, 20 mg/kg/day (BID) oral, ~14 hours postdose (actual 15 hours)): 81.2 ± 22.8 ng/mL | concentration at 15.5 h ([2]; mouse, plasma, mice, Day 6, Group 5, 100 mg/kg/day (BID) oral, ~14 hours postdose (actual 15.5 hours)): 551 ± 253 ng/mL | concentration at 28 h ([2]; mouse, plasma, mice, Day 6, Group 6, 20 mg/kg/day (QD) oral, ~26 hours postdose (actual 28 hours)): 25.7 ± 8.1 ng/mL | Ly6C+ monocyte-derived macrophages in liver (% of liver leukocytes) [3]: 0.95%±0.14

— patent US20180110754A1, “CENICRIVIROC FOR THE TREATMENT OF FIBROSIS” (Tobira Therapeutics, Inc., priority 2015, published 2018)
